Here are results for one compound from BindingDB's records for doi:10.1016/s0960-894x(02)00471-7 (Universita' Di Firenze, 2002).

In the assay the target is T1, Substance-K receptor (Homo sapiens, UniProt P21452).
T1 sequence (P21452 whole entry): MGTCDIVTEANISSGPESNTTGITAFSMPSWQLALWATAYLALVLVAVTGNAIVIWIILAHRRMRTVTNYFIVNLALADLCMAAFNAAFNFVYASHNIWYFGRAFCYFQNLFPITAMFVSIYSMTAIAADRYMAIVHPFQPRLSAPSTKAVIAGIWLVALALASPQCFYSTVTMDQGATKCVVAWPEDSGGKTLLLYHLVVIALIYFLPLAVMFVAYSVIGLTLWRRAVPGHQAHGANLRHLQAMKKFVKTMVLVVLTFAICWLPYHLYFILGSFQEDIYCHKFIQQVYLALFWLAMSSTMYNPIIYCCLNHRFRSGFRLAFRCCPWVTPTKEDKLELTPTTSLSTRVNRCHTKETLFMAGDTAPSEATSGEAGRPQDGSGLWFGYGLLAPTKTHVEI
Kind of assay: ChEBML_209037. From the text: Displacement of [125I]NKA from human Tachykinin receptor 2 expressed in CHO cells

Consider `CCOC(=O)C1C(C)OC2OC(COCc3ccccc3)C(OCc3ccccc3)C(=O)C2[S+]1[O-]` (stereo unspecified) [7-Benzyloxy-6-benzyloxymethyl-8-hydroxy-3-methyl-1-oxo-6,7,8,8a-tetrahydro-1H,4aH-4,5-dioxa-1lambda*4*-thia-naphthalene-2-carboxylic acid ethyl ester], for which the affinity, expressed as Ki, was 790 nM.

Usually Ki stands for a dissociation constant, usually derived from enzyme kinetics or from competition with a known ligand. A low value points to higher affinity.
